We go through 3 compounds from paper PMC9988962 (Scientific Reports, 2023).

In brackets after ≈: the same amount, converted by molar mass. Residues, ends and D or L forms follow the SMILES beside them. *: point of attachment. NH(β-GlcNAc) = CC(=O)N[C@@H]1[C@@H](O)[C@H](O)[C@@H](CO)O[C@H]1N*

One data set deals with Bacillus subtilis 6633. As to the kind of experiment: microbe, parasite or virus in culture. The protocol:
(§1) Starting from a peptide stock solution, two-fold serial dilutions were sequentially carried out, accordingly to the broth microdilution method. Following over-night incubation, MIC100 values were determined as the lowest peptide concentration needed for no visible bacterial growth.

In data set [1] the test system is Acinetobacter baumannii ATCC 17,978. Nature of the data set: microbe, parasite or virus in culture. The protocol:
as §1

In data set [2] the test system is Klebsiella pneumoniae ATCC 700,603. Nature of the data set: microbe, parasite or virus in culture. The protocol: as §1
The next data set has as its system MRSA WKZ-2. As to the kind of experiment: microbe, parasite or virus in culture. The method, then: as §1
Data set [3] has as its system Staphylococcus aureus ATCC 29,213. As to the kind of experiment: microbe, parasite or virus in culture. The protocol:
as §1

Data set [4] has as its system Bacillus globigii TNO BMO13. Nature of the data set: microbe, parasite or virus in culture. The method, then:
as §1

The subject of data set [5] is Pseudomonas aeruginosa 01. Nature of the data set: microbe, parasite or virus in culture. The method, then:
as §1

Data set [6] relates to Escherichia coli ATCC 25,922. Nature of the data set: microbe, parasite or virus in culture. The protocol: as §1
Data set [7] deals with BALB/c 3T3 cells (normal murine fibroblasts). The note with it: BALB/c 3T3, two-fold dilutions of peptide, 24 h, 37 °C, 5% CO2, three independent experiments. The method, then:
In brief, 5·10^3 cells were seeded on a 96-well plate and after 16 h treated with increasing concentrations of peptides for 24 h at 37 °C and 5% CO2. Cell viability was analyzed by performing the (3-(4,5-dimethylthiazol-2-yl)-2,5 diphenyltetrazolium bromide) reduction inhibition assay (MTT assay)[42].
Normal and transformed murine fibroblasts, 3T3 and SVT2, were treated with increasing concentration of the two peptides. After 24 h of incubation at 37 °C and 5% CO2, cells mitochondrial activity was measured performing MTT assay.

Data set [8] concerns Escherichia coli ATCC 25,922. The note with it: for MIC after treatment with pepsin / MIC after treatment with α-chymotrypsin: E. coli ATCC 25,922, 37 °C, 15 min, then MIC; for MIC after treatment with pepsin: 100 μM peptide incubated with 100 nM pepsin; for MIC after treatment with α-chymotrypsin: 100 μM peptide incubated with 100 nM α-chymotrypsin. The protocol:
as §1
(§2) To analyze the stability of the peptides to the proteases, 100 μM of LL-III and glycosylated LL-III were incubated with 100 nM of α-chymotrypsin or pepsin at 37 °C for 15 min and then antimicrobial activity were assayed as reported above. The peptide solution without proteases was used as the control group.

Data set [9] deals with Escherichia coli ATCC 25,922. The note with it: E. coli ATCC 25,922; 200 μM peptide solution with fetal bovine serum 1:1 (v/v), 24 h, 37 °C, then MIC. The method, then: as §1
(§3) For comparison, the MIC values of untreated peptides (incubated in water) were also determined.

Data set [10] concerns Escherichia coli ATCC 25,922. The conditions noted are these: E. coli ATCC 25,922; peptide incubated in water without proteases or serum. The method, then:
as §1, §2, §3

Where [11] appears, read: Bacillus subtilis 6633, 1 × 10^6 CFU/mL, 0.5X Nutrient Broth, over-night, MIC100.
The mark [12] stands for this setting: Acinetobacter baumannii ATCC 17,978, 1 × 10^6 CFU/mL, 0.5X Nutrient Broth, over-night, MIC100.
Where [13] appears, read: Klebsiella pneumoniae ATCC 700,603, 1 × 10^6 CFU/mL, 0.5X Nutrient Broth, over-night, MIC100.
Setting [14] is: MRSA WKZ-2, 1 × 10^6 CFU/mL, 0.5X Nutrient Broth, over-night, MIC100.
[15] abbreviates: Staphylococcus aureus ATCC 29,213, 1 × 10^6 CFU/mL, 0.5X Nutrient Broth, over-night, MIC100.
Setting [16] is: Bacillus globigii TNO BMO13, 1 × 10^6 CFU/mL, 0.5X Nutrient Broth, over-night, MIC100.
Where [17] appears, read: Pseudomonas aeruginosa 01, 1 × 10^6 CFU/mL, 0.5X Nutrient Broth, over-night, MIC100.
The mark [18] stands for this setting: Escherichia coli ATCC 25,922, 1 × 10^6 CFU/mL, 0.5X Nutrient Broth, over-night, MIC100.
Where [19] appears, read: from MIC values against E. coli after 15 min at 37 °C with protease.

In the case of `O=C(O)c1cn(C2CC2)c2cc(N3CCNCC3)c(F)cc2c1=O` [Ciprofloxacin], the MIC against Bacillus subtilis 6633 (Bacillus subtilis, 6633) was determined as 0.15 µM (≈ 0.0497 µg/mL); in [1] (Acinetobacter baumannii), 0.15 µM (≈ 0.0497 µg/mL); in [2] (Klebsiella pneumoniae) it was 1.2 µM (≈ 0.398 µg/mL); in the data set on MRSA WKZ-2 (Staphylococcus aureus, MRSA), 0.3 µM (≈ 0.0994 µg/mL); in data set [3] (Staphylococcus aureus, ATCC29), 0.6 µM (≈ 0.199 µg/mL); in [4] (Bacillus subtilis, TNOBMO13), 0.3 µM (≈ 0.0994 µg/mL). For the same compound, the MIC in data set [5] (Pseudomonas aeruginosa, 01) came to 0.3 µM (≈ 0.0994 µg/mL); in data set [6] (Escherichia coli) it was 0.15 µM (≈ 0.0497 µg/mL).

Take `CC[C@H](C)[C@H](NC(=O)[C@H](CCCCN)NC(=O)[C@H](CCCCN)NC(=O)[C@H](Cc1c[nH]c2ccccc12)NC(=O)[C@H](CC(=O)N[C@@H]1O[C@H](CO)[C@@H](O)[C@H](O)[C@H]1NC(C)=O)NC(=O)[C@@H](N)C(C)C)C(=O)N[C@@H](CC(C)C)C(=O)NCC(=O)N[C@@H](CCCCN)C(=O)N[C@H](C(=O)N[C@H](C(=O)N[C@@H](CCCCN)C(=O)N[C@H](C(=O)N[C@H](C(=O)N[C@@H](CCCCN)C(N)=O)C(C)C)C(C)C)[C@@H](C)CC)[C@@H](C)CC` [g-LL-III] (H-VD(NH(β-GlcNAc))WKKILGKIIKVVK-NH2): the MIC in the data set on Bacillus subtilis 6633 (setting [11]) is listed as 1.56 µM (≈ 3.07 µg/mL); in [1] (setting [12]), 3.12 µM (≈ 6.14 µg/mL); in data set [2] (setting [13]), 3.12 µM (≈ 6.14 µg/mL); in the data set on MRSA WKZ-2 (setting [14]) it was 3.12 µM (≈ 6.14 µg/mL); in data set [3] (setting [15]), 1.56 µM (≈ 3.07 µg/mL); in data set [4] (setting [16]) it was 1.56 µM (≈ 3.07 µg/mL). Moreover, the MIC in data set [5] (setting [17]) and in data set [6] (setting [18]) was 3.12 µM (≈ 6.14 µg/mL) throughout. Moreover, the “cell viability (MTT), g-LL-III compared with LL-III” value in [7] is reported as “no significant differences”. Also, the “MIC after treatment with pepsin” value in data set [8] stood at 6.25 µM. Further, in data set [8], the “MIC after treatment with α-chymotrypsin” value turned out to be 6.25 µM. In addition, the “reduction of susceptibility to pepsin versus parental peptide” value in [8] (setting [19]) amounted to 2 times. The “reduction of susceptibility to α-chymotrypsin versus parental peptide” value in [8] (setting [19]) stood at 4 times. Besides, the “MIC after treatment with 50% FBS” value in data set [9] came out at 3.12 µM. In addition, in data set [10], the “MIC after treatment in water (control)” value amounted to 3.12 µM (≈ 6.14 µg/mL).

For the compound `CC[C@H](C)[C@H](NC(=O)[C@H](CCCCN)NC(=O)[C@H](CCCCN)NC(=O)[C@H](Cc1c[nH]c2ccccc12)NC(=O)[C@H](CC(N)=O)NC(=O)[C@@H](N)C(C)C)C(=O)N[C@@H](CC(C)C)C(=O)NCC(=O)N[C@@H](CCCCN)C(=O)N[C@H](C(=O)N[C@H](C(=O)N[C@@H](CCCCN)C(=O)N[C@H](C(=O)N[C@H](C(=O)N[C@@H](CCCCN)C(N)=O)C(C)C)C(C)C)[C@@H](C)CC)[C@@H](C)CC` [LL-III, Lasioglossin III] (H-VNWKKILGKIIKVVK-NH2), the MIC with Bacillus subtilis 6633 (setting [11]) was 1.56 µM (≈ 2.75 µg/mL); in data set [1] (setting [12]) it was 3.12 µM (≈ 5.51 µg/mL); in data set [2] (setting [13]), 3.12 µM (≈ 5.51 µg/mL); against MRSA WKZ-2 (setting [14]), 3.12 µM (≈ 5.51 µg/mL); in [3] (setting [15]) it was 1.56 µM (≈ 2.75 µg/mL); in [4] (setting [16]), 1.56 µM (≈ 2.75 µg/mL). Besides, the MIC turned out to be 1.56 µM (≈ 2.75 µg/mL) in data set [5] (setting [17]) and 3.12 µM (≈ 5.51 µg/mL) in [6] (setting [18]). For the same compound, the “MIC after treatment with pepsin” value in [8] turned out to be 12.5 µM. Besides, the “MIC after treatment with α-chymotrypsin” value in data set [8] was found to be 25 µM. In addition, the “MIC after treatment with 50% FBS” value in data set [9] is 6.25 µM. In addition, the “MIC after treatment in water (control)” value in data set [10] is recorded as 3.12 µM (≈ 5.51 µg/mL).
